According to ChEMBL document CHEMBL1141009, “Synthesis of BODIPY-labeled alkylphosphocholines with leishmanicidal activity, as fluorescent analogues of miltefosine” (2008):

Test system: Leishmania donovani
Assay: Antileishmanial activity against Leishmania donovani promastigotes
Type: functional
Details: read-out: LD50 (the source's name)

Row | SMILES | LC50
1 | CCC1=C(C)C2=Cc3c(C)c(CCCCCCCCCCCOP(=O)([O-])OCC[N+](C)(C)C)c(C)n3[B-](F)(F)[N+]2=C1C | 4.3 µM
2 | CC1=CC(C)=[N+]2C1=Cc1c(C)c(CCCCCCCCCCCOP(=O)([O-])OCC[N+](C)(C)C)c(C)n1[B-]2(F)F | 5.2 µM
3 | CCCCCCCCCCCCCCCCOP(=O)([O-])OCC[N+](C)(C)C [MILTEFOSINE] | 6.5 µM
